Data from US8546381B2, “Bridged heterocyclic compounds and methods of use” (Medivation Technologies, Inc., priority 2008, dated 2013).
Where “and” joins values, the source holds several entries; their conditions need not be identical. Equal entries are not always repeated.

Columns and labels:
[1] = molecular target: T1, human recombinant adrenergic α1D receptor (Homo sapiens, UniProt P25100); assay: Adrenergic α1D radioligand binding ([3H]Prozosin); settings: 1 μM; for inhibition at 1 µM: read-out: Adrenergic α1D, inhibition of ligand binding (1 μM)
T1 construct: expressed in transfected cells; host or cells: HEK-293 cells
T1 sequence (P25100 1-572): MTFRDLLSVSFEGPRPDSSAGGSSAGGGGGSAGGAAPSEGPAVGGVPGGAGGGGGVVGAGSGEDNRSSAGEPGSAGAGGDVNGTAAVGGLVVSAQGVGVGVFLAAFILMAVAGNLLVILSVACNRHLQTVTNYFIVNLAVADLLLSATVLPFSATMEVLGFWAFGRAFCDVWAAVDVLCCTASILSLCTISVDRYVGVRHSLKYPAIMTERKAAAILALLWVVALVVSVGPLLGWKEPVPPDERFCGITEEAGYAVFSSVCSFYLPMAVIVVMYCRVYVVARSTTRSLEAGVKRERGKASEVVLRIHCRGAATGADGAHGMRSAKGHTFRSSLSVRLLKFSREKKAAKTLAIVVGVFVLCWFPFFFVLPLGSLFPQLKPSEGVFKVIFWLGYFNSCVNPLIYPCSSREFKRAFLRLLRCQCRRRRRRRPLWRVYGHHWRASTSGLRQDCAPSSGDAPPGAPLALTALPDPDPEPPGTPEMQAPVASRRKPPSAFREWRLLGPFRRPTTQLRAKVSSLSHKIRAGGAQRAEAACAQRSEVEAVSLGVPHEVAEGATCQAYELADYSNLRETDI
Method: To evaluate in radioligand binding assays the activity of compounds of the invention, human recombinant adrenergic α1D receptor expressed in human embryonic kidney (HEK-293) cells (Kenny, B. A. et al. Br. J. Pharmacol. 115(6):981, 1995) in a 50 mM Tris-HCl buffer, pH 7.4, was used. Compounds of invention were incubated with 0.6 nM [^3H]Prozosin for 60 minutes at 25° C. Non-specific binding was estimated in the presence of 10 μM phentolamine. Receptor proteins were filtered and washed, the filters were then counted to determine [^3H]Prozosin specifically bound. Compounds were screened at 1 μM or lower, using 1% DMSO as vehicle. Biochemical assay results are presented as the percent inhibition of specific binding in Table 3.

[2] = molecular target: T2, human recombinant adrenergic α2A receptor (Homo sapiens, UniProt P08913); assay: Adrenergic α2A radioligand binding ([3H]MK-912); settings: 1 μM; for inhibition at 1 µM: read-out: Adrenergic α2A, inhibition of ligand binding (1 μM)
T2 construct: expressed in transfected cells; host or cells: insect Sf9 cells
T2 sequence (P08913 1-465): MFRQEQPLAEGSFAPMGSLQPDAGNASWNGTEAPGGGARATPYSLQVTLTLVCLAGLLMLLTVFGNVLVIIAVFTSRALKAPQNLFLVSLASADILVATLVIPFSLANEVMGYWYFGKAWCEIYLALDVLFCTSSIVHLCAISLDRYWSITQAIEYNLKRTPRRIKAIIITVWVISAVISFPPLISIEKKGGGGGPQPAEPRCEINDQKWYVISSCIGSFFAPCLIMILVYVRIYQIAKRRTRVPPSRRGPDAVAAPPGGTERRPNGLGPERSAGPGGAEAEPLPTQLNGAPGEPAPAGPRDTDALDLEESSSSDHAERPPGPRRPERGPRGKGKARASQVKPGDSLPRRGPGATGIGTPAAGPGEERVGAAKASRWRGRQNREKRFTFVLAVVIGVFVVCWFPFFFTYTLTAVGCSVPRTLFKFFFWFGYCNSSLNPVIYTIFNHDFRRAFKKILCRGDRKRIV
Method: To evaluate in radioligand binding assays the activity of compounds of the invention, human recombinant adrenergic α2A receptor expressed in insect Sf9 cells (Uhlen S et al. J Pharmacol Exp Ther. 271:1558, 1994) in a modified Tris-HCl buffer (50 mM Tris-HCl, pH 7.4, 12.5 mM MgCl2, 2 mM EDTA) was used. Compounds of invention were incubated with 1 nM [^3H]MK-912 for 60 minutes at 25° C. MK912 is (2S-trans)-1,3,4,5′,6,6′,7,12b-octahydro-1′,3′-dimethyl-spiro[2H-benzofuro[2,3-a]quinolizine-2,4′(1′H) -pyrimidin]-2′(3′H)-one hydrochloride Non-specific binding was estimated in the presence of 10 μM WB-4101 (2-(2,6-Dimethoxyphenoxyethyl)aminomethyl-1,4-benzodioxane hydrochloride). Receptor proteins were filtered and washed, the filters were then counted to determine [^3H]MK-912 specifically bound. Compounds were screened at 1 μM or lower, using 1% DMSO as vehicle. Biochemical assay results are presented as the percent inhibition of specific binding in Table 3.

[3] = molecular target: T3, human recombinant serotonin (5-Hydroxytryptamine) 5-HT2A receptor (Homo sapiens, UniProt P28223); assay: Serotonin 5-HT2A radioligand binding ([3H]Ketanserin); settings: for inhibition at 1 µM: read-out: Serotonin 5-HT2A, inhibition of ligand binding (1 μM)
T3 construct: expressed in transfected cells; host or cells: CHO-K1 cells
T3 sequence (P28223 whole entry): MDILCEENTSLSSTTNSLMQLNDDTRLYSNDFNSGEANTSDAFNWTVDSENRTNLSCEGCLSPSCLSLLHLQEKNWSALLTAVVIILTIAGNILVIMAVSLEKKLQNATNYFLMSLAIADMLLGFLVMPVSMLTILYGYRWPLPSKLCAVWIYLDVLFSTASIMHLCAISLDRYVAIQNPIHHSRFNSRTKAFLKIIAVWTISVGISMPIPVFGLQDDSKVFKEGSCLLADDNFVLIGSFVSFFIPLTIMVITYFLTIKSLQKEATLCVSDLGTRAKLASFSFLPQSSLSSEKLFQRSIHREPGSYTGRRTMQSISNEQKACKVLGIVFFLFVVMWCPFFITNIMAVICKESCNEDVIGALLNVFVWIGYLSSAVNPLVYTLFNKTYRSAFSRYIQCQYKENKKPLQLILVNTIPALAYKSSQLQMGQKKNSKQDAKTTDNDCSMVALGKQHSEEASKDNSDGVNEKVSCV
Procedure, shortened: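 CHO-K1 membranes with human 5-HT2A in 50 mM Tris-HCl pH 7.4, incubated with 0.5 nM [3H]Ketanserin for 60 min at 25 °C; non-specific binding defined with 1 μM mianserin. Bound ligand measured by filtration and counting.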

[4] = molecular target: T4, human recombinant serotonin (5-Hydroxytryptamine) 5-HT6 receptor (Homo sapiens, UniProt P50406); assay: Serotonin 5-HT6 radioligand binding ([3H]LSD); settings: for inhibition at 1 µM: read-out: Serotonin 5-HT6, inhibition of ligand binding (1 μM)
T4 construct: expressed in transfected cells; host or cells: human HeLa cells
T4 sequence (P50406 whole entry): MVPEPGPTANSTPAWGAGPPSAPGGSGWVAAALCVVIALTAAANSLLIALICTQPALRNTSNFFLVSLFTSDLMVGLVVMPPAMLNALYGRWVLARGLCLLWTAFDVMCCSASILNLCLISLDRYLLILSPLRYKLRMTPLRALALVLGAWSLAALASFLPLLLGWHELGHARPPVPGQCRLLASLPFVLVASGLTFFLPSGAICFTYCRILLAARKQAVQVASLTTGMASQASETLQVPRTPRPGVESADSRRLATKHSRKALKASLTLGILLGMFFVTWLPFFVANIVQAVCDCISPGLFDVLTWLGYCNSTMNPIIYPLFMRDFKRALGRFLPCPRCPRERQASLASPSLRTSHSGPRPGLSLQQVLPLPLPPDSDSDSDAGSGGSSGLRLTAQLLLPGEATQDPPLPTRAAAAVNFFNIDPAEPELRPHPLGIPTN
Procedure, shortened: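 Membranes of HeLa cells expressing human 5-HT6 were incubated with 1.5 nM [3H]LSD in Tris-HCl buffer pH 7.4 for 120 min at 37° C, with non-specific binding defined by 5 μM 5-HT.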

SMILES	inhibition at 1 µM [1]	inhibition at 1 µM [2]	inhibition at 1 µM [3]	inhibition at 1 µM [4]	Adrenergic α1D, inhibition of ligand binding (1 μM) [1]	Adrenergic α2A, inhibition of ligand binding (1 μM) [2]	Serotonin 5-HT2A, inhibition of ligand binding (1 μM) [3]	Serotonin 5-HT6, inhibition of ligand binding (1 μM) [4]
COc1ccc(C(C)(O)Cn2c3c(c4cc(C)ccc42)C2CCC(C3)N2C)cc1F (stereo not drawn) [Compound 161]	30%	55%	96%	25%	–	–	–	–
CN1C2CCC1c1c(n(CCC(N)=O)c3ccc(Cl)cc13)C2 (stereo not drawn) [Compound 73]	19%	6%	-9%	-4%	–	–	–	–
CN1C2CCC1c1c(n(CCC(=O)O)c3ccc(Cl)cc13)C2 (stereo not drawn) [Compound 72]	-9%	6%	-6%	-1%	–	–	–	–
Cc1cncc(CCn2c3c(c4cc(C)ccc42)C2CCC(C3)N2C)c1 (stereo not drawn) [Compound 90]	40%	26%	30%	6%	–	–	–	–
CN1C2CCC1c1c(n(CCc3cccnc3)c3ccc(Cl)cc13)C2 (stereo not drawn) [Compound 80]	54%	21%	33%	6%	–	–	–	–
CN1C2CCC1c1c(n(CCC(=O)N3CCSCC3)c3ccc(Cl)cc13)C2 (stereo not drawn) [Compound 12]	3%	0%	10%	-1%	–	–	–	–
CCOC(=O)CCn1c2c(c3cc(Cl)ccc31)C1CCC(C2)N1C (stereo not drawn) [Compound 70, ethyl 3-(2-chloro-11-methyl-5,6,7,8,9,10-hexahydro-7,10-iminocyclohept[b]indol-5-yl)propanoate]	26%	3%	16%	3%	–	–	–	–
CN1C2CCC1c1c(n(CCC(=O)N3CC[S+]([O-])CC3)c3ccc(Cl)cc13)C2 (stereo not drawn) [Compound 10]	7%	-7%	-5%	-13%	–	–	–	–
CN1C2CCC1c1c(n(CCc3ccc(C(F)(F)F)nc3)c3cc(F)c(Cl)cc13)C2 (stereo not drawn) [Compound 77]	37%	30%	26%	21%	–	–	–	–
CN1C2CCC1c1c(n(CC(=O)c3ccccc3)c3ccc(Cl)cc13)C2 (stereo not drawn) [Compound 110]	40%	48%	83%	48%	–	–	–	–
Cc1ccc2c(c1)c1c(n2CC(C)(O)c2ccc(Cl)cc2)CC2CCC1N2C (stereo not drawn) [Compound 54]	25%	75%	100%	26%	–	–	–	–
CN1C2CCC1c1c(n(CCCc3ccc(C(F)(F)F)nc3)c3ccc(Cl)cc13)C2 (stereo not drawn) [Compound 37]	12%	10%	23%	22%	–	–	–	–
CN1[C@@H]2CC[C@H]1c1c(n(CC(=O)N3CCCCC3)c3ccccc13)C2 [Compound 101]	74%	18%	93%	15%	–	–	–	–
CN1C2CCC1c1c(n(CCc3ccc(C(F)(F)F)nc3)c3ccc(Cl)cc13)C2 (stereo not drawn) [Compound 34]	61%	42%	–	20%	56.0%	39.0%	36.0/ % and 65.0%	28.0%
CN1C2CCC1c1c(n(CCC#N)c3ccc(Cl)cc13)C2 (stereo not drawn) [Compound 107]	47%	42%	5%	-3%	–	–	–	–
CN1[C@@H]2CC[C@H]1c1c(n(CC(C)(O)c3ccc(F)cc3)c3ccccc13)C2 (stereo partly drawn) [Compound 99]	20%	25%	73%	-2%	–	–	–	–
CC(=O)N1CCN(C(=O)CCn2c3c(c4cc(Cl)ccc42)C2CCC(C3)N2C)CC1 (stereo not drawn) [Compound 8]	8%	-2%	1%	-1%	–	–	–	–
Cc1ccc2c(c1)c1c(n2CCc2ccccc2)CC2CCCC1N2C (stereo not drawn) [Compound 56]	65%	92%	31%	30%	–	–	–	–
Cc1ccc2c(c1)c1c(n2CCc2ccc(C(F)(F)F)nc2)CC2CCC1N2C (stereo not drawn) [Compound 71]	62%	28%	22%	–	63.0%	48.0%	34.0%	8.0/ % and 2.0%
C/C(=C\n1c2c(c3cc(Cl)ccc31)C1CCC(C2)N1C)c1ccc(F)cc1 (stereo not drawn) [Compound 123]	79%	95%	97%	98%	–	–	–	–
CN1C2CCC1c1c(n(CC(=O)c3ccc(Cl)cc3)c3ccc(Cl)cc13)C2 (stereo not drawn) [Compound 111]	40%	89%	94%	38%	–	–	–	–
